“And” between values parts separate entries of the source, which are not always exact repeats. Equal values may be shown once. Marks after values point to notes of the source that are not given here.
Legend:
[1] = Intracellular metabolism in human hepatocytes; type: in vitro ADME; conditions: human hepatocytes
Procedure: (§1) Hepatocytes. […] Cryopreserved male mouse (CD1), and fresh male Beagle dog and male cynomolgus monkey hepatocytes were obtained from BioreclamationIVT (Baltimore, MD) and were similarly plated with Matrigel in 6- or 24-well plates and maintained overnight in InVitroGRO™HI medium with Torpedo™ antibiotic (BioreclamationIVT). The protocol described above for measuring AT-511 and its metabolites in Huh-7 cells was repeated with the five different hepatocytes. Untreated cells were collected at 24 h, and the protein content of the cell lysates were determined using a bicinchoninic acid protein assay kit to assess the number of cells in each incubation. Separately, plated human hepatocytes were incubated for 6 h with 100 μM AT-511, followed by washout periods of 0, 2, 6, 18 and 30 h.
(§2) S3 Protocol. LC-MS/MS analysis of AT-511 and metabolites in cultured cells. The supernatant extracts of each hepatocyte and Huh-7 cell incubation were separately analyzed by four different LC-MS/MS methods for quantitation of phosphoramidates, nucleosides, monophosphates, and triphosphates (methods 1, 2, 3 and 4, respectively), using synthetic reference standards of actually and potentially present compounds and using structurally related analogs as internal standards. Briefly, a Luna PFP (2), 5 µm, 100 x 4.6 mm column and an AB Sciex API-6500 mass spectrometer (ESI positive ion, MRM mode) were used for methods 1-3 and an XBridge Oligonucleotide, BEH C18, 2.5 µm, 50 x 2.1 mm column and a Thermo QE Plus mass spectrometer (electrospray, negative ion mode) were used for method 4. For methods 1 and 2, mobile phases A (10 mM ammonium acetate in water) and B (acetonitrile:methanol, 1:1, v/v) were used to elute samples (5 µL) at 1 mL/min with 15% B for 1.5 min followed by a linear gradient to 75% B over 1 min (method 1) or with 54% B for 1.3 min followed by a linear gradient to 90% B over 1.2 min. Method 3 was the same except mobile phase A was 0.3% acetic acid in water, […] and samples were eluted with 3% B for 3 min followed by a linear gradient to 55% B over 1.2 min. For method 4, mobile phase A (3 mM ammonium formate with 10 mM dimethylhexylamine (DMHA) in water) and mobile phase B (3 mM ammonium formate with 10 mM DMHA in acetonitrile:water, 1:1, v/v) were used to elute samples at 0.4 mL/min with 0% B for 1.5 min followed by a linear gradient to 100% B over 2 min and ending with an isocratic elution for 0.5 min at 100% B.

[2] = Intracellular metabolism in dog hepatocytes; type: in vitro ADME, Beagle dog
Procedure: as §1, §2

[3] = Monkey PK study, liver and heart tissue levels; type: in vivo, cynomolgus monkey; conditions: monkey; for Mean Concentration at 4 hr Postdose, Heart: footnoted values extrapolated below LLOQ
Description: Monkey PK study. Male non-naïve cynomolgus monkeys were obtained from Hainan Jingang Laboratory Animal Co., Ltd. (Hainan, China), group housed during the 5-day acclimation period or individually housed during the study in stainless steel mesh cages, provided ad libitum access to RO water, fed twice daily (~120 g Certified Monkey Diet daily; Beijing Vital Keao Feed Co., Ltd., Beijing, China) and given daily treats of fresh fruit. Additional environmental enrichment included classical music and cartoons. Three groups of 5 monkeys each were administered 30, 100 or 300 mg/kg AT-527 as a powder filled in empty porcine hard gelatin capsules (size 0). The monkeys were fasted overnight prior to dosing and fed 4 h after dosing. Three dosages were selected to provide assessments of dose proportionality, the top two representing potential doses for a repeated oral dose toxicity study in monkeys, and the lowest predicted to be more therapeutically relevant. A pill gun was used to place the capsule beyond the root of the animals’ tongues and their mouths were held loosely closed for approximately 30 sec to allow them to move the jaw and swallow the capsule. Immediately following capsule administration, 20 mL of water was given by mouth and then the mouth was opened to ensure the capsule was swallowed. Blood samples (~0.6 mL) were collected up to 72 h from three animals per dose group, and up to 4 h from the remaining two animals in each group, at the same time points described for rats. […] Blood samples were collected with a syringe from a peripheral blood vessel from restrained, non-sedated animals, immediately transferred to pre-chilled tubes containing ~1 mg K2EDTA•2H20 and 20 μL of 5 mM dichlorvos solution, mixed and placed on ice until plasma was prepared by centrifugation as described for rats. Immediately after centrifugation, plasma samples were extracted with 4 volumes ISS2, and the supernatants were clarified by centrifugation (12,000 rpm, 10 min, 4°C) and stored at ≤ -60°C until analyzed by LC-MS/MS as described below. After the 4-hr blood collection, two monkeys per dose group were anesthetized with intravenous injection of pentobarbital sodium (60 mg/kg) and then euthanized as described for rats. […] All analytes were quantitated by LC-MS/MS as described below.
For the analysis of AT-9010 in rat tissue homogenate supernatant, aliquots were diluted 1:2 with water and injected onto an Agilent Zorbax Extend C18 5 μm, 2.1 × 50 mm column and a Sciex API 4000 mass spectrometer (ESI positive ion, MRM mode). Mobile phases A (0.001% ammonia and 0.18 mM DBAA in water (1:1, v/v) and B (10 mM dimethylhexylamine (DMHA) and 3 mM AA in 50% ACN in water) were used to elute samples (60 μL) at 0.7 mL/min with 2% B for 0.8 min followed by a linear gradient to 30% B over 0.4 min, isocratic elution at 30% B for 0.4 min, a linear gradient to 95% B over 0.4 min, and ending with 95% B for 0.4 min. The analysis of AT-9010 in monkey tissue homogenate supernatant was the same except the sample injection volume was 20 μL. Attempts to measure tissue levels of other potentially formed TPs, including 2,6-diaminopurine-2’-F-2’-C-methylribosyl-5’-triphosphate and 2-amino-6-methylaminopurine-2’-F-2’-C-methylribosyl-5’-triphosphate (M2-TP), also used this method.
For the analysis of M2 and M3 in monkey tissue homogenate supernatant, aliquots were diluted 1:3 with water and injected onto an Acuity HSS T3 1.8 μm, 2.1 × 50 mm column and a Sciex API 6500 mass spectrometer (ESI positive ion, MRM mode). Mobile phases A (0.3% FA and 10 mM AA in water and B (0.3% FA and 10 mM AA in 95% ACN in water) were used to elute samples (1 μL) at 0.6 mL/min with 0% B for 0.4 min followed by linear gradients to 30% B over 0.5 min and to 95% B over 0.2 min, ending with isocratic elution at 95% B for 0.4 min.

[4] = Intracellular metabolism in mouse hepatocytes; type: in vitro ADME, mouse (CD1)
Procedure: as §1, §2

Row | SMILES | intracellular levels of nucleoside metabolites ([1]; low to undetectable) [pmol/10^6 cells] | intracellular levels of nucleoside metabolites ([2]; low to undetectable) [pmol/10^6 cells] | Mean Concentration at 4 hr Postdose, Liver ([3]; AT-527 30 mg/kg oral) | Liver/Heart Ratio ([3]; AT-527 30 mg/kg oral, 4 h) | Mean Concentration at 4 hr Postdose, Heart ([3]; AT-527 30 mg/kg oral) | Mean Concentration at 4 hr Postdose, Liver ([3]; AT-527 100 mg/kg oral) | Liver/Heart Ratio ([3]; AT-527 100 mg/kg oral, 4 h) | Mean Concentration at 4 hr Postdose, Heart ([3]; AT-527 100 mg/kg oral) | Mean Concentration at 4 hr Postdose, Liver ([3]; AT-527 300 mg/kg oral) [pmol/g] | Liver/Heart Ratio ([3]; AT-527 300 mg/kg oral, 4 h) | Mean Concentration at 4 hr Postdose, Heart ([3]; AT-527 300 mg/kg oral) | intracellular levels of nucleoside metabolites ([4]; low to undetectable) [pmol/10^6 cells] | AUC0-24, intracellular ([1]; 10 μM AT-511) [pmol*h/10^6 cells] | Cmax, intracellular ([1]; 10 μM AT-511, 0-24 h) [pmol/10^6 cells] | AUC0-24, intracellular ([2]; 10 μM AT-511) [pmol*h/10^6 cells] | Cmax, intracellular ([2]; 10 μM AT-511, 0-24 h) [pmol/10^6 cells] | fold higher mean liver concentration than parent phosphoramidate ([3]; 30 mg/kg, 4 h) [fold] | AUC0-24, intracellular ([4]; 10 μM AT-511) [pmol*h/10^6 cells] | Cmax, intracellular ([4]; 10 μM AT-511, 0-24 h) [pmol/10^6 cells]
1 | C[C@@]1(F)[C@H](O)[C@@H](CO)O[C@H]1n1cnc2c(=O)[nH]c(N)nc21 [AT-273] | < 10 | < 10 | 267 pmol/g | 3.0 | 88.5 pmol/g | 672 pmol/g | 2.9 | 229 pmol/g | 939 | 2.1 | 444 pmol/g | < 10 |  |  |  |  |  |  | 
2 | C[C@@]1(F)[C@H](O)[C@@H](COP(=O)(O)OP(=O)(O)OP(=O)(O)O)O[C@H]1n1cnc2c(=O)[nH]c(N)nc21 [AT-9010] |  |  | 545 ± 349 pmol/g and 545 pmol/g | 11^b | 51.2^b pmol/g | 1890 ± 519 pmol/g and 1890 pmol/g | 31^b | 61.8^b pmol/g | 968 |  | 55.3^b pmol/g |  | 1363 | 69.2 ± 8.8 | 229 | 15.4 ± 6.6 | 34 | 1177 | 85.4 ± 0.4

— paper PMC6949113, “Preclinical evaluation of AT-527, a novel guanosine nucleotide prodrug with potent, pan-genotypic activity against hepatitis C virus” (PLoS ONE, 2020)
